Reference: PubChem BioAssay (NCI)
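Step 1: Grow cells in 96-well plates. Step 2: Expose to compound for 48 hours at 5 concentrations. Step 3: Interpolate endpoints linearly; if unreached, use highest concentration. GI50: concentration for 50% inhibition of growth. TGI: total growth inhibition.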

Legend:
Assay in all cases: NCI anticancer screen, dose series, 48 h
786-0 renal = system: 786-0 renal
ACHN renal = system: ACHN renal
BT-549 breast = system: BT-549 breast
CAKI-1 renal = system: CAKI-1 renal
CCRF-CEM leukemia = system: CCRF-CEM leukemia
COLO 205 colon = system: COLO 205 colon
DU-145 prostate = system: DU-145 prostate
HCC-2998 colon = system: HCC-2998 colon
HCT-15 colon = system: HCT-15 colon
HL-60(TB) leukemia = system: HL-60(TB) leukemia
HOP-92 NSCLC = system: HOP-92 NSCLC
HS 578T breast = system: HS 578T breast
HT29 colon = system: HT29 colon
IGROV1 ovarian = system: IGROV1 ovarian
KM12 colon = system: KM12 colon
LOX IMVI melanoma = system: LOX IMVI melanoma
M14 melanoma = system: M14 melanoma
MALME-3M melanoma = system: MALME-3M melanoma
MDA-MB-231 breast = system: MDA-MB-231 breast
MDA-MB-435 = system: MDA-MB-435
MDA-MB-468 breast = system: MDA-MB-468 breast
NCI-H226 lung = system: NCI-H226 lung
NCI-H23 lung = system: NCI-H23 lung
NCI-H460 lung = system: NCI-H460 lung
OVCAR-3 ovarian = system: OVCAR-3 ovarian
OVCAR-4 ovarian = system: OVCAR-4 ovarian
OVCAR-5 ovarian = system: OVCAR-5 ovarian
OVCAR-8 ovarian = system: OVCAR-8 ovarian
PC-3 prostate = system: PC-3 prostate
RPMI-8226 leukemia = system: RPMI-8226 leukemia
SF-539 CNS = system: SF-539 CNS
SK-MEL-2 melanoma = system: SK-MEL-2 melanoma
SK-MEL-28 melanoma = system: SK-MEL-28 melanoma
SK-MEL-5 melanoma = system: SK-MEL-5 melanoma
SK-OV-3 ovarian = system: SK-OV-3 ovarian
SN12C renal = system: SN12C renal
SR leukemia = system: SR leukemia
SW-620 colon = system: SW-620 colon
T-47D breast = system: T-47D breast
TK-10 renal = system: TK-10 renal
UACC-257 melanoma = system: UACC-257 melanoma
UACC-62 melanoma = system: UACC-62 melanoma
UO-31 renal = system: UO-31 renal

CN(C)CCCNC(=S)Nc1ccc(/C=C/c2ccc(Cl)cc2)cc1
GI50 (786-0 renal): 1620 nM
TGI (786-0 renal): 3360 nM
GI50 (ACHN renal): 1780 nM
TGI (ACHN renal): 3190 nM
GI50 (BT-549 breast): 2890 nM
TGI (BT-549 breast): 8870 nM
GI50 (CAKI-1 renal): 1540 nM
TGI (CAKI-1 renal): 2960 nM
GI50 (CCRF-CEM leukemia): 1630 nM
TGI (CCRF-CEM leukemia): 3430 nM
GI50 (COLO 205 colon): 1880 nM
TGI (COLO 205 colon): 3640 nM
GI50 (DU-145 prostate): 1750 nM
TGI (DU-145 prostate): 3330 nM
GI50 (HCC-2998 colon): 1640 nM
TGI (HCC-2998 colon): 3140 nM
GI50 (HCT-15 colon): 1530 nM
TGI (HCT-15 colon): 3030 nM
GI50 (HL-60(TB) leukemia): 1670 nM
TGI (HL-60(TB) leukemia): 3930 nM
GI50 (HOP-92 NSCLC): 1350 nM
TGI (HOP-92 NSCLC): 2990 nM
GI50 (HS 578T breast): 1860 nM
TGI (HS 578T breast): 4520 nM
GI50 (HT29 colon): 2140 nM
TGI (HT29 colon): 4720 nM
GI50 (IGROV1 ovarian): 1780 nM
TGI (IGROV1 ovarian): 3310 nM
GI50 (KM12 colon): 1820 nM
TGI (KM12 colon): 3400 nM
GI50 (LOX IMVI melanoma): 1640 nM
TGI (LOX IMVI melanoma): 3090 nM
GI50 (M14 melanoma): 1770 nM
TGI (M14 melanoma): 3620 nM
GI50 (MALME-3M melanoma): 1750 nM
TGI (MALME-3M melanoma): 3140 nM
GI50 (MDA-MB-231 breast): 1620 nM
TGI (MDA-MB-231 breast): 3030 nM
GI50 (MDA-MB-435): 1580 nM
TGI (MDA-MB-435): 3060 nM
GI50 (MDA-MB-468 breast): 1640 nM
TGI (MDA-MB-468 breast): 3070 nM
GI50 (NCI-H226 lung): 8410 nM
TGI (NCI-H226 lung): 38200 nM
GI50 (NCI-H23 lung): 2020 nM
TGI (NCI-H23 lung): 4440 nM
GI50 (NCI-H460 lung): 1540 nM
TGI (NCI-H460 lung): 3010 nM
GI50 (OVCAR-3 ovarian): 1440 nM
TGI (OVCAR-3 ovarian): 3110 nM
GI50 (OVCAR-4 ovarian): 1920 nM
TGI (OVCAR-4 ovarian): 4350 nM
GI50 (OVCAR-5 ovarian): 1610 nM
TGI (OVCAR-5 ovarian): 3090 nM
GI50 (OVCAR-8 ovarian): 1980 nM
TGI (OVCAR-8 ovarian): 4100 nM
GI50 (PC-3 prostate): 1640 nM
TGI (PC-3 prostate): 3240 nM
GI50 (RPMI-8226 leukemia): 2550 nM
TGI (RPMI-8226 leukemia): 7330 nM
GI50 (SF-539 CNS): 1680 nM
TGI (SF-539 CNS): 3050 nM
GI50 (SK-MEL-2 melanoma): 1870 nM
TGI (SK-MEL-2 melanoma): 3570 nM
GI50 (SK-MEL-28 melanoma): 1790 nM
TGI (SK-MEL-28 melanoma): 3200 nM
GI50 (SK-MEL-5 melanoma): 1720 nM
TGI (SK-MEL-5 melanoma): 3090 nM
GI50 (SK-OV-3 ovarian): 2030 nM
TGI (SK-OV-3 ovarian): 4160 nM
GI50 (SN12C renal): 1680 nM
TGI (SN12C renal): 3130 nM
GI50 (SR leukemia): 1940 nM
TGI (SR leukemia): 5100 nM
GI50 (SW-620 colon): 1670 nM
TGI (SW-620 colon): 3140 nM
GI50 (T-47D breast): 1880 nM
TGI (T-47D breast): 4100 nM
GI50 (TK-10 renal): 1870 nM
TGI (TK-10 renal): 3560 nM
GI50 (UACC-257 melanoma): 1640 nM
TGI (UACC-257 melanoma): 3240 nM
GI50 (UACC-62 melanoma): 1750 nM
TGI (UACC-62 melanoma): 3170 nM
GI50 (UO-31 renal): 1580 nM
TGI (UO-31 renal): 2940 nM
